# Results from the supplement of paper PMC8882468.
# Test system: HCI-024 (organoid from a breast cancer xenograft)
# Assay: CTG-3D luminescence at 96 h relative to day-0 seeding control (ratio to day 0); higher = more growth / less cytotoxicity; PDxO 3D drug screen, 96 h, CTG-3D normalised to day-0 seeding control.
# Conditions: 0.005 µM; days in culture: 163
row,SMILES,CTG-3D luminescence at 96 h
1,CC(C)(C(=O)NCC(F)(F)C(F)(F)F)C(=O)N[C@@H]1C(=O)Nc2ccccc2-c2ccccc21,1.38
2,C=CC(=O)N1CCC[C@@H](n2nc(-c3ccc(Oc4ccccc4)cc3)c3c(N)ncnc32)C1 [ibrutinib],2.1
3,CNC(=O)c1cccc(-c2ccc3c(N4CCOC[C@@H]4C)nc(N4CCOC[C@@H]4C)nc3n2)c1 [vistusertib],1.73
4,CCN(c1cc(C#CCN2CCOCC2)cc(C(=O)NCc2c(C)cc(C)[nH]c2=O)c1C)[C@H]1CC[C@H](N(C)CCOC)CC1,1.77

# Same assay, conditions: 0.1 µM; days in culture: 105
row,SMILES,CTG-3D luminescence at 96 h
1,CC(C)(C(=O)NCC(F)(F)C(F)(F)F)C(=O)N[C@@H]1C(=O)Nc2ccccc2-c2ccccc21,1.85
2,C=CC(=O)N1CCC[C@@H](n2nc(-c3ccc(Oc4ccccc4)cc3)c3c(N)ncnc32)C1 [ibrutinib],1.46
3,CNC(=O)c1cccc(-c2ccc3c(N4CCOC[C@@H]4C)nc(N4CCOC[C@@H]4C)nc3n2)c1 [vistusertib],1.28
4,CCN(c1cc(C#CCN2CCOCC2)cc(C(=O)NCc2c(C)cc(C)[nH]c2=O)c1C)[C@H]1CC[C@H](N(C)CCOC)CC1,1.53

# Same assay, conditions: 0.1 µM; days in culture: 122
row,SMILES,CTG-3D luminescence at 96 h
1,CC(C)(C(=O)NCC(F)(F)C(F)(F)F)C(=O)N[C@@H]1C(=O)Nc2ccccc2-c2ccccc21,1.67
2,C=CC(=O)N1CCC[C@@H](n2nc(-c3ccc(Oc4ccccc4)cc3)c3c(N)ncnc32)C1 [ibrutinib],1.49
3,CNC(=O)c1cccc(-c2ccc3c(N4CCOC[C@@H]4C)nc(N4CCOC[C@@H]4C)nc3n2)c1 [vistusertib],1.84
4,CCN(c1cc(C#CCN2CCOCC2)cc(C(=O)NCc2c(C)cc(C)[nH]c2=O)c1C)[C@H]1CC[C@H](N(C)CCOC)CC1,1.85

# Same assay, conditions: 0.1 µM; days in culture: 163
row,SMILES,CTG-3D luminescence at 96 h
1,CC(C)(C(=O)NCC(F)(F)C(F)(F)F)C(=O)N[C@@H]1C(=O)Nc2ccccc2-c2ccccc21,2.27
2,C=CC(=O)N1CCC[C@@H](n2nc(-c3ccc(Oc4ccccc4)cc3)c3c(N)ncnc32)C1 [ibrutinib],2.44
3,CNC(=O)c1cccc(-c2ccc3c(N4CCOC[C@@H]4C)nc(N4CCOC[C@@H]4C)nc3n2)c1 [vistusertib],2.31
4,CCN(c1cc(C#CCN2CCOCC2)cc(C(=O)NCc2c(C)cc(C)[nH]c2=O)c1C)[C@H]1CC[C@H](N(C)CCOC)CC1,2.62

# Same assay, conditions: 1 µM; days in culture: 105
row,SMILES,CTG-3D luminescence at 96 h
1,CC(C)(C(=O)NCC(F)(F)C(F)(F)F)C(=O)N[C@@H]1C(=O)Nc2ccccc2-c2ccccc21,1.67
2,C=CC(=O)N1CCC[C@@H](n2nc(-c3ccc(Oc4ccccc4)cc3)c3c(N)ncnc32)C1 [ibrutinib],1.32
3,CNC(=O)c1cccc(-c2ccc3c(N4CCOC[C@@H]4C)nc(N4CCOC[C@@H]4C)nc3n2)c1 [vistusertib],0.65
4,CCN(c1cc(C#CCN2CCOCC2)cc(C(=O)NCc2c(C)cc(C)[nH]c2=O)c1C)[C@H]1CC[C@H](N(C)CCOC)CC1,1.77

# Same assay, conditions: 1 µM; days in culture: 122
row,SMILES,CTG-3D luminescence at 96 h
1,CC(C)(C(=O)NCC(F)(F)C(F)(F)F)C(=O)N[C@@H]1C(=O)Nc2ccccc2-c2ccccc21,1.64
2,C=CC(=O)N1CCC[C@@H](n2nc(-c3ccc(Oc4ccccc4)cc3)c3c(N)ncnc32)C1 [ibrutinib],1.64
3,CNC(=O)c1cccc(-c2ccc3c(N4CCOC[C@@H]4C)nc(N4CCOC[C@@H]4C)nc3n2)c1 [vistusertib],0.987
4,CCN(c1cc(C#CCN2CCOCC2)cc(C(=O)NCc2c(C)cc(C)[nH]c2=O)c1C)[C@H]1CC[C@H](N(C)CCOC)CC1,2.34

# Same assay, conditions: 1 µM; days in culture: 163
row,SMILES,CTG-3D luminescence at 96 h
1,CC(C)(C(=O)NCC(F)(F)C(F)(F)F)C(=O)N[C@@H]1C(=O)Nc2ccccc2-c2ccccc21,2.12
2,C=CC(=O)N1CCC[C@@H](n2nc(-c3ccc(Oc4ccccc4)cc3)c3c(N)ncnc32)C1 [ibrutinib],1.92
3,CNC(=O)c1cccc(-c2ccc3c(N4CCOC[C@@H]4C)nc(N4CCOC[C@@H]4C)nc3n2)c1 [vistusertib],1.19
4,CCN(c1cc(C#CCN2CCOCC2)cc(C(=O)NCc2c(C)cc(C)[nH]c2=O)c1C)[C@H]1CC[C@H](N(C)CCOC)CC1,2.29

# Same assay, conditions: 10 µM; days in culture: 105
row,SMILES,CTG-3D luminescence at 96 h
1,CC(C)(C(=O)NCC(F)(F)C(F)(F)F)C(=O)N[C@@H]1C(=O)Nc2ccccc2-c2ccccc21,2.09
2,C=CC(=O)N1CCC[C@@H](n2nc(-c3ccc(Oc4ccccc4)cc3)c3c(N)ncnc32)C1 [ibrutinib],1.61
3,CNC(=O)c1cccc(-c2ccc3c(N4CCOC[C@@H]4C)nc(N4CCOC[C@@H]4C)nc3n2)c1 [vistusertib],0.778
4,CCN(c1cc(C#CCN2CCOCC2)cc(C(=O)NCc2c(C)cc(C)[nH]c2=O)c1C)[C@H]1CC[C@H](N(C)CCOC)CC1,2.22

# Same assay, conditions: 10 µM; days in culture: 122
row,SMILES,CTG-3D luminescence at 96 h
1,CC(C)(C(=O)NCC(F)(F)C(F)(F)F)C(=O)N[C@@H]1C(=O)Nc2ccccc2-c2ccccc21,2.55
2,C=CC(=O)N1CCC[C@@H](n2nc(-c3ccc(Oc4ccccc4)cc3)c3c(N)ncnc32)C1 [ibrutinib],1.91
3,CNC(=O)c1cccc(-c2ccc3c(N4CCOC[C@@H]4C)nc(N4CCOC[C@@H]4C)nc3n2)c1 [vistusertib],1.07
4,CCN(c1cc(C#CCN2CCOCC2)cc(C(=O)NCc2c(C)cc(C)[nH]c2=O)c1C)[C@H]1CC[C@H](N(C)CCOC)CC1,3.46

# Same assay, conditions: 10 µM; days in culture: 163
row,SMILES,CTG-3D luminescence at 96 h
1,CC(C)(C(=O)NCC(F)(F)C(F)(F)F)C(=O)N[C@@H]1C(=O)Nc2ccccc2-c2ccccc21,2.52
2,C=CC(=O)N1CCC[C@@H](n2nc(-c3ccc(Oc4ccccc4)cc3)c3c(N)ncnc32)C1 [ibrutinib],1.75
3,CNC(=O)c1cccc(-c2ccc3c(N4CCOC[C@@H]4C)nc(N4CCOC[C@@H]4C)nc3n2)c1 [vistusertib],0.949
4,CCN(c1cc(C#CCN2CCOCC2)cc(C(=O)NCc2c(C)cc(C)[nH]c2=O)c1C)[C@H]1CC[C@H](N(C)CCOC)CC1,2.35

# Same assay, conditions: 100 µM; days in culture: 105
row,SMILES,CTG-3D luminescence at 96 h
1,CC(C)(C(=O)NCC(F)(F)C(F)(F)F)C(=O)N[C@@H]1C(=O)Nc2ccccc2-c2ccccc21,1.22
2,C=CC(=O)N1CCC[C@@H](n2nc(-c3ccc(Oc4ccccc4)cc3)c3c(N)ncnc32)C1 [ibrutinib],-0.00218
3,CNC(=O)c1cccc(-c2ccc3c(N4CCOC[C@@H]4C)nc(N4CCOC[C@@H]4C)nc3n2)c1 [vistusertib],0.554
4,CCN(c1cc(C#CCN2CCOCC2)cc(C(=O)NCc2c(C)cc(C)[nH]c2=O)c1C)[C@H]1CC[C@H](N(C)CCOC)CC1,1.53

# Same assay, conditions: 100 µM; days in culture: 122
row,SMILES,CTG-3D luminescence at 96 h
1,CC(C)(C(=O)NCC(F)(F)C(F)(F)F)C(=O)N[C@@H]1C(=O)Nc2ccccc2-c2ccccc21,1.21
2,C=CC(=O)N1CCC[C@@H](n2nc(-c3ccc(Oc4ccccc4)cc3)c3c(N)ncnc32)C1 [ibrutinib],-0.00165
3,CNC(=O)c1cccc(-c2ccc3c(N4CCOC[C@@H]4C)nc(N4CCOC[C@@H]4C)nc3n2)c1 [vistusertib],0.813
4,CCN(c1cc(C#CCN2CCOCC2)cc(C(=O)NCc2c(C)cc(C)[nH]c2=O)c1C)[C@H]1CC[C@H](N(C)CCOC)CC1,1.5

# Same assay, conditions: 100 µM; days in culture: 163
row,SMILES,CTG-3D luminescence at 96 h
1,CC(C)(C(=O)NCC(F)(F)C(F)(F)F)C(=O)N[C@@H]1C(=O)Nc2ccccc2-c2ccccc21,1.71
2,C=CC(=O)N1CCC[C@@H](n2nc(-c3ccc(Oc4ccccc4)cc3)c3c(N)ncnc32)C1 [ibrutinib],0.00762
3,CNC(=O)c1cccc(-c2ccc3c(N4CCOC[C@@H]4C)nc(N4CCOC[C@@H]4C)nc3n2)c1 [vistusertib],0.662
4,CCN(c1cc(C#CCN2CCOCC2)cc(C(=O)NCc2c(C)cc(C)[nH]c2=O)c1C)[C@H]1CC[C@H](N(C)CCOC)CC1,1.91

# Same assay, conditions: 625 fM; days in culture: 105
row,SMILES,CTG-3D luminescence at 96 h
1,CC(C)(C(=O)NCC(F)(F)C(F)(F)F)C(=O)N[C@@H]1C(=O)Nc2ccccc2-c2ccccc21,1.91
2,C=CC(=O)N1CCC[C@@H](n2nc(-c3ccc(Oc4ccccc4)cc3)c3c(N)ncnc32)C1 [ibrutinib],1.84
3,CNC(=O)c1cccc(-c2ccc3c(N4CCOC[C@@H]4C)nc(N4CCOC[C@@H]4C)nc3n2)c1 [vistusertib],1.79
4,CCN(c1cc(C#CCN2CCOCC2)cc(C(=O)NCc2c(C)cc(C)[nH]c2=O)c1C)[C@H]1CC[C@H](N(C)CCOC)CC1,1.42

# Same assay, conditions: 625 fM; days in culture: 122
row,SMILES,CTG-3D luminescence at 96 h
1,CC(C)(C(=O)NCC(F)(F)C(F)(F)F)C(=O)N[C@@H]1C(=O)Nc2ccccc2-c2ccccc21,3.41
2,C=CC(=O)N1CCC[C@@H](n2nc(-c3ccc(Oc4ccccc4)cc3)c3c(N)ncnc32)C1 [ibrutinib],3.5
3,CNC(=O)c1cccc(-c2ccc3c(N4CCOC[C@@H]4C)nc(N4CCOC[C@@H]4C)nc3n2)c1 [vistusertib],2.77
4,CCN(c1cc(C#CCN2CCOCC2)cc(C(=O)NCc2c(C)cc(C)[nH]c2=O)c1C)[C@H]1CC[C@H](N(C)CCOC)CC1,2.18

# Same assay, conditions: 625 fM; days in culture: 163
row,SMILES,CTG-3D luminescence at 96 h
1,CC(C)(C(=O)NCC(F)(F)C(F)(F)F)C(=O)N[C@@H]1C(=O)Nc2ccccc2-c2ccccc21,2.36
2,C=CC(=O)N1CCC[C@@H](n2nc(-c3ccc(Oc4ccccc4)cc3)c3c(N)ncnc32)C1 [ibrutinib],2.03
3,CNC(=O)c1cccc(-c2ccc3c(N4CCOC[C@@H]4C)nc(N4CCOC[C@@H]4C)nc3n2)c1 [vistusertib],1.95
4,CCN(c1cc(C#CCN2CCOCC2)cc(C(=O)NCc2c(C)cc(C)[nH]c2=O)c1C)[C@H]1CC[C@H](N(C)CCOC)CC1,1.9
